Experimental data reported in patent US20240099992A1, “COMPOSITIONS AND METHODS FOR TREATING CANCER” (priority 2021, published 2024).
Like-named read-outs stand apart in the source and are kept apart here.

Columns and labels:
[1] = test system: H22, a mouse liver cancer cell line; conditions: for Tumor suppression rate at day 9: versus normal saline group; for Tumor suppression rate at day 9 / suppression of tumor growth in the mouse liver cancer model (in words): dihydrochloride; for suppression of tumor growth in the mouse liver cancer model (in words): 120 and 240 mg/Kg daily through mouth, dose dependent
Experimental: H22, a mouse liver cancer cell line from ATCC, was cultured in 1640 medium with 10% […] at 37° C., 5% CO2. The cells were harvest 48 hours later and diluted to 1×10^6 cells/mL with the medium. Kunming mice, male, and body weight of 20 to 23 grams were used for the in vivo study. The animals were allowed free access to food and water throughout the study. All experimental protocols described here were approved by the Ethics Review Committee for Animal Experimentation. 0.2 mL of 1×10^6/ml cell suspension was inoculated into the abdominal cavity of the Kunming mice. The H22 ascites was transplanted 5 days later. The H22 cells in the ascites were harvested, diluted to a concentration of 1×10^7/mL with sterilized NS, then 0.2 mL was injected subcutaneously into the right armpit region of the mice. […] The animals were randomly divided into 3 groups with 7 mice in each and received the drug through mouth daily. Group 1: normal saline; Group 2: Methylenediamine Dihydrochloride low dose of 120 mg/Kg; Group 3: methylenediamine dihydrochloride high dose of 240 mg/Kg. Two perpendicular dimensions (length and width) of the subcutaneous transplantation tumors were measured in every mouse at day 3, day 6 and day 9 to calculate the tumor volume which was compared among groups (volume=½×length×width^2). […] The tumor suppression rate was calculated as: tumor volume in normal saline group minus tumor volume in methylenediamine dihydrochloride treated group, then divided by tumor volume of normal saline group.

[2] = test system: HL-60 (acute leukemia cell); conditions: 50 μM, 100 μM and 500 μM, 24 hours
Experimental: (§1) 50000 cells of each cell line were plated per well in a 24 well plate, treated with methylenediamine hydrochloride at different concentrations (0 as control, 50 μM, 100 μM and 500 μM) for 24 hours, then the living cells were counted. Jurkat: T cell leukemia, HL-60: acute leukemia cell; MV-411: B-myelomonocytic leukemia.

[3] = test system: Jurkat (T cell leukemia); conditions: 50 μM, 100 μM and 500 μM, 24 hours
Experimental: as §1

[4] = test system: MV-411 (B-myelomonocytic leukemia); conditions: 50 μM, 100 μM and 500 μM, 24 hours
Experimental: as §1

[5] = test system: cancer cell lines C8161, MUM2C, SKOV3, OVACA3, ScNAP, DU145, H1299, A549, MDA231, SNU499; conditions: MTT, 24 hours
Experimental: The cancer cell lines were cultured in DMEM supplemented with 10% fetal bovine serum (FBS) and 100 U/mL penicillin-streptomycin in a humidified 37° C. incubator supplemented with 5% CO2. Cell proliferation was analyzed using MTT proliferation kit (Sigma). In brief, the cells were plated (5.0×10^3 cells per well) in 96-well plates and allowed to adhere overnight. The cells were then treated with methylenediamine dihydrochloride at various concentrations (0, 1 μM, 50 μM; 100 μM. 250 μM, 500 μM and 1 mM for 24 hours before the assay. After the incubation period, 10 μL of the MTT labeling reagent (final concentration 0.5 mg/mL) was added to each well. The microplate was incubated for 4 hours in a humidified atmosphere (37° C., 5% CO2). 100 μL of the Solubilization solution was added into each well. The plate was allowed to stand overnight in the incubator in a humidified atmosphere (37° C., 5% CO2). Complete solubilization of the purple formazan crystals was checked and the absorbance of the samples was measured using a microplate reader with wavelength of 570 nm.

In the case of methylenediamine dihydrochloride, the “Average tumor volume, Day 3” value ([1]; 120 mg/Kg daily through mouth) is reported as 0.43 cm^3, the “Average tumor volume, Day 6” value ([1]; 120 mg/Kg daily through mouth) is reported as 0.85 cm^3 and the “Average tumor volume, Day 9” value ([1]; 120 mg/Kg daily through mouth) is reported as 1.21 cm^3. For the same substance, the “Tumor suppression rate at day 9” value ([1]; 120 mg/Kg daily through mouth) was 30.5%, the “Tumor suppression rate at day 9” value ([1]; 120 mg/Kg daily through mouth, listed as Methylenediamine dihydrochloride) was 30.5% and the “Average tumor volume, Day 3” value ([1]; 240 mg/Kg daily through mouth) was 0.41 cm^3. For the same substance, the “Average tumor volume, Day 6” value ([1]; 240 mg/Kg daily through mouth) was 0.78 cm^3, the “Average tumor volume, Day 9” value ([1]; 240 mg/Kg daily through mouth) was 1.10 cm^3 and the “Tumor suppression rate at day 9” value ([1]; 240 mg/Kg daily through mouth) was 36.8%. The “Tumor suppression rate at day 9” value ([1]; 240 mg/Kg daily through mouth, listed as Methylenediamine dihydrochloride) was 36.8%, the “suppression of tumor growth in the mouse liver cancer model (in words)” value ([1]; listed as ethylenediamine dihydrochloride) was “effective in treating cancers” and the “suppression of tumor growth in the mouse liver cancer model (in words)” value ([1]; listed as methylenediamine dihydrochloride) was “successfully suppressed tumor growth”. For the same substance, the “suppression of living cells” value [2] was “significant suppression”, the “suppression of living cells” value [3] was “significant suppression” and the “suppression of living cells” value [4] was “significant suppression”. For the same substance, the “suppression of cell proliferation (in words)” value ([5]; 0 μM to 1 mM) was “suppressed with a dose dependent pattern”, the “concentration at which suppression of most cancer cells' growth started” value [5] was 50 µM and the “concentration above which proliferation was significantly suppressed” value ([5]; dose dependent pattern) was “above 100 μM”.
